Assay results from US20210292306A1, “NOVEL INDOLE DERIVATIVE AND ANTI-CANCER CONPOSITION CONTAINING SAME” (KOREA RESEARCH INSTITUTE OF BIOSCIENCE AND BIOTECHNOLOGY, priority 2016, published 2021).

Tests used:
[1] = test system: K562/ADR; assay: Anti-proliferative activity in cancer cells showing multiple drug resistance (MTT assay); type: cell-based; details: ratio of IC50 K562/ADR to IC50 K562
Experimental: (§1) HeLa cells (ATCC, USA), which are a human cervical cancer cell line, were dispensed into a 96-well plate at 2×10^3 cells/well, and the cells were treated with DMSO or the indole derivatives of the present invention, and then allowed to grow for 4 days. And then, MTT (3-(4,5-Dimethylthiazol-2-yl)-2,5-diphenyltetrazolium bromide) reagent was added to the wells at 10 μl/well. After 2 hours, the absorbance was measured at “OD 450” and statistical values were obtained using the plizm6 program. The data represent mean values of the results of two repeated assays (Table 1). Specifically, K562 and MCF7 (Bio Evaluation Center, Korea Research Institute of Bioscience and Biotechnology, Korea), and K562/ADR and MCF7/ADR (Bio Evaluation Center, Korea Research Institute of Bioscience and Biotechnology, Korea), which are multiple drug-resistant cell lines of the above mentioned cell lines, respectively, were cultured on a microtiter plate at 1-3×10^3 cells/well.

[2] = test system: MCF7/ADR; assay: as above; type: cell-based; details: ratio of IC50 MCF7/ADR to IC50 MCF7
Experimental: as §1

[3] = test system: human-derived skin cancer cell line (A431); assay: Anti-cancer effect in human-derived skin cancer cell (A431) implantation nude mouse model; type: in vivo, BALB/C female nude mouse; details: for tumor growth inhibition: day 23; for tumor weight reduction: excised A431 tumors weighed
Experimental: The human cancer cell line A431 which was kept frozen in liquid nitrogen was thawed and cell culture was conducted. Cells were cultured in a CO2 incubator (Forma, USA) at 37° C. and 5% CO2 for an appropriate period of time. On the last day of culture, all cancer cells were collected and counted and the cell concentration was adjusted to 1×10^7 cells/ml using serum free media. The culture solution thus prepared was injected subcutaneously in the axillary region between the scapula and chest wall in an amount of 0.3 ml per BALB/C female nude mouse (5 weeks old, Nara Biotech) (3×10^6 cells/mouse). […] To examine the toxicity levels of the repeated intraperitoneal administration of WCI-1031 to A431 cancer cell implantation nude mice, general symptoms and weight changes of the animals were observed during the administration period. […] On day 23 after the start of the drug administration, blood was taken from the mice through ophthalmic veins 2 hours after the last administration, and the mice were sacrificed using CO2 gas. Then the mice were photographed and the tumors was isolated and weighed in a chemical balance. After taking photographs, each tumor was divided in half, and the resultant tumors were fixed to liquid nitrogen and formalin, respectively.

CC[C@]1(O)C[C@@H]2CN(CCc3c([nH]c4ccccc34)[C@@](C(=O)OC)(c3cc4c(cc3OC)N(C)[C@H]3[C@@](O)(C(=O)OC)[C@H](OC(C)=O)[C@]5(CC)C=CCN6CC[C@]43[C@@H]65)C2)C1 [Vinblastine, vinblastine]
Resistance factor [1]: 15.63
Resistance factor [2]: 18.17

COc1cc2c(c(OC)c1OC)-c1ccc(OC)c(=O)cc1[C@@H](NC(C)=O)CC2 [colchicine, reference compound]
tumor growth inhibition ([3]; colchicine 0.07 mg/kg, days 0-23, p<0.05): 17.6%
tumor weight reduction ([3]; colchicine 0.07 mg/kg, p<0.05): 17.6%
Resistance factor [1]: 22.91
Resistance factor [2]: 34.15

CC(=O)O[C@H]1C(=O)[C@@]2(C)[C@H]([C@H](OC(=O)c3ccccc3)[C@]3(O)C[C@H](OC(=O)[C@H](O)[C@@H](NC(=O)c4ccccc4)c4ccccc4)C(C)=C1C3(C)C)[C@]1(OC(C)=O)CO[C@@H]1C[C@@H]2O [Taxol, taxol]
Resistance factor [1]: 519.6
Resistance factor [2]: 438.38

COc1cccc2c1C(=O)c1c(O)c3c(c(O)c1C2=O)C[C@@](O)(C(=O)CO)C[C@@H]3O[C@H]1C[C@H](N)[C@H](O)[C@H](C)O1 [Doxorubicin, doxorubicin]
Resistance factor [1]: 767.91
Resistance factor [2]: 169.57

O=c1[nH]cc(F)c(=O)[nH]1 [Example 5-FU, 5-FU, reference compound]
tumor growth inhibition ([3]; 5-FU 2 mg/ml at 10 ml/kg, days 0-2, 5-9, 12-16, 19-23, p<0.01): 20.7%
tumor weight reduction ([3]; 5-FU 2 mg/ml at 10 ml/kg, p<0.05): 20.8%
